Test systems include COLO 205; DU-145; EKVX; HCT-116; Hs-578T; K562; Malme-3M; NCI-H23; OVCAR-5; PC-3; SF-295; SK-MEL-28; SK-MEL-2; SK-OV-3; T47D; TK-10; U-251; UACC-257; UACC-62; NCI/ADR-RES.
Holding throughout (test): NCI tumour cell line growth inhibition, 48 h

The source of these data is ChEMBL document CHEMBL1201862, “PubChem BioAssay data set” (2004).

The structures appear in SMILES notation.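 96-well plates; 48 h exposure; 5 concentrations. Endpoints by linear interpolation between flanking doses. Not reached: highest tested concentration assigned. Here, GI50 denotes the concentration required for 50% inhibition of growth.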 The source made the active and inactive calls. Cut-off read from the data, not from the text of the source: active = GI50 up to about 1.1 µM and inactive = higher. Where only a bound is given, the exact number is not on record here.

For `CSc1[nH]nc(N)c1C(=O)Nc1ccc(C)cc1`, the GI50 was 55 µM (inactive) in the assay on COLO 205; 22.3 µM (inactive) with DU-145; 32.2 µM (inactive) with EKVX; 75.2 µM (inactive) in the assay with HCT-116; > 100 µM (inactive) in the assay with Hs-578T; 69.5 µM (inactive) with K562. For the same molecule, the GI50 with Malme-3M is 89.1 µM (inactive); in the assay with NCI-H23, 61.1 µM (inactive); with OVCAR-5, 54.7 µM (inactive); with PC-3 it was 33.7 µM (inactive); in the assay with SF-295 it was 65 µM (inactive); in the assay on SK-MEL-28, 48.8 µM (inactive). For the same molecule, the GI50 is 74.1 µM (inactive) in the assay on SK-MEL-2; > 100 µM (inactive) in the assay with SK-OV-3; 18.4 µM (inactive) in the assay on T47D; 43 µM (inactive) in the assay on TK-10; 50.2 µM (inactive) in the assay with U-251; 62.4 µM (inactive) in the assay on UACC-257. The GI50 with UACC-62 is > 100 µM (inactive).

Take `N#Cc1cccc2c1Sc1ccccc1N2`: the GI50 with COLO 205 is 19.8 µM (inactive); with DU-145 it was 40.6 µM (inactive); in the assay on EKVX it was 19.1 µM (inactive); in the assay with HCT-116, 31.3 µM (inactive); in the assay with Hs-578T it was 0.397 µM (active); in the assay on K562 it was 17.4 µM (inactive). Also, the GI50 is 41.6 µM (inactive) in the assay with Malme-3M; 21.2 µM (inactive) in the assay on NCI-H23; 31.3 µM (inactive) with NCI/ADR-RES; 26.7 µM (inactive) in the assay on OVCAR-5; 14.1 µM (inactive) in the assay on PC-3; 23.9 µM (inactive) in the assay on SF-295. The GI50 in the assay with SK-OV-3 was 38.9 µM (inactive); in the assay with T47D, 19.2 µM (inactive); with TK-10, 17.1 µM (inactive); in the assay on U-251, 20 µM (inactive); in the assay on UACC-257 it was 35.1 µM (inactive); in the assay on UACC-62, 27.2 µM (inactive).

`CNC(=O)OCCN1c2ccccc2Sc2ccccc21`: the GI50 with COLO 205 was > 100 µM (inactive); in the assay on DU-145, > 100 µM (inactive); with EKVX, 17.1 µM (inactive); with HCT-116, 74 µM (inactive); in the assay on Hs-578T, > 100 µM (inactive); in the assay on K562, > 100 µM (inactive). Further, the GI50 is > 100 µM (inactive) with Malme-3M; > 100 µM (inactive) in the assay on NCI-H23; > 100 µM (inactive) in the assay on NCI/ADR-RES; > 100 µM (inactive) with OVCAR-5; 46.6 µM (inactive) in the assay with PC-3; 60.8 µM (inactive) in the assay with SF-295. Moreover, the GI50 in the assay on SK-MEL-28, in the assay on SK-OV-3, in the assay with T47D, in the assay with TK-10, in the assay with U-251 and in the assay on UACC-257 was > 100 µM (inactive) in each case. Further, in the assay with UACC-62, the GI50 is 4.99 µM (inactive).

Consider `CCN(CC)CCC1CCCCN1CC(=O)N1c2cc(Cl)ccc2NC(=O)CC1C` (centres undefined), for which the GI50 with COLO 205, in the assay with DU-145, in the assay on EKVX, with HCT-116, in the assay on Hs-578T and with K562 was > 100 µM (inactive) each time. Moreover, the GI50 in the assay with Malme-3M, in the assay on NCI-H23, in the assay with OVCAR-5, in the assay with PC-3, in the assay on SF-295 and with SK-MEL-28 was > 100 µM (inactive) each time. Also, the GI50 with SK-MEL-2, in the assay with SK-OV-3, in the assay with T47D, in the assay on TK-10, in the assay on U-251 and in the assay on UACC-62 was > 100 µM (inactive) each time.
